Eleven molecules from ChEMBL document CHEMBL5390294, “Pseudoceranoids A-J, Sesquiterpene-Based Meroterpenoids with Cytotoxicity from the Sponge Pseudoceratina purpurea” (J Nat Prod, 2023) can be followed below.

One series concerns MDA-MB-231. Kind of series: Cytotoxicity against human MDA-MB-231 cells assessed as inhibition of cell growth by SRB assay. The class given is functional, cell-based.
Series [1] can be described thus: Cytotoxicity against human L02 cells assessed as inhibition of cell growth by SRB assay. The class given is toxicity, cell-based. For orientation: In SRB staining, fixed cells bind dye roughly in proportion to their protein.
The next series concerns H69AR. Briefly: Cytotoxicity against human NCI-H69AR cells assessed as inhibition of cell growth by SRB assay. It counts as functional, cell-based.
The subject of another series is ASPC1. Briefly: Cytotoxicity against human ASPC1 cells assessed as inhibition of cell growth by SRB assay. It counts as functional, cell-based.
For a further series, the system named is K562. Kind of series: Cytotoxicity against human K562 cells assessed as inhibition of cell growth by MTT assay. It counts as functional, cell-based.

By IC50 is commonly meant the midpoint of a concentration-inhibition curve.

Turning to `COC1=CC(=O)[C@H](C[C@@]2(C)CC[C@]3(C)C(C)=CCC[C@H]3[C@H]2C)[C@H]1O`, the IC50 (in the series on MDA-MB-231; in series [1]; in the series with H69AR; with ASPC1; in the series on K562) was more than 30 µM in each case.

With `COC1=CC(=O)C(O)=C(C[C@@]2(C)CC[C@]3(C)C(C=O)=CCC[C@H]3[C@H]2C)C1=O`, the IC50 in the series with MDA-MB-231 is more than 30 µM; in series [1] it was 12.1 µM; in the series on H69AR it was 2.85 µM; in the series on ASPC1, more than 30 µM; with K562, more than 30 µM.

As for `COC1=CC(=O)C2=C(C[C@@H]3[C@@]4(C)CCCC(C)(C)[C@@H]4CC[C@@]23C)C1=O`, the IC50 (in the series with MDA-MB-231; in series [1]; in the series on H69AR; in the series with ASPC1; with K562) was more than 30 µM each time.

On to `COC1=CC(=O)C(O)=C(C[C@@]2(C)CC[C@]3(C)[C@@H](C)C(=O)CC[C@H]3[C@H]2C)C1=O`, for which the half-inhibitory concentration (IC50) is more than 30 µM in the series on MDA-MB-231; 7.6 µM in series [1]; more than 30 µM in the series with H69AR; more than 30 µM with ASPC1; 16.1 µM with K562.

For the molecule `C=C1CCC[C@H]2[C@@H]1CC[C@@H](C)[C@@]2(C)CC1=CC(=O)C=C(OC)C1=O`, the IC50 (with MDA-MB-231; in series [1]; in the series with H69AR; in the series with ASPC1; in the series on K562) was more than 30 µM throughout.

Consider `COc1cc(O)cc2c1O[C@]1(C)CC[C@H]3C(C)(C)CCC[C@]3(C)[C@H]1C2`, for which the IC50 with MDA-MB-231 is more than 30 µM; in series [1], more than 30 µM; in the series on H69AR it was more than 30 µM; in the series on ASPC1 it was more than 30 µM; in the series on K562, 14 µM.

On to `COC(=O)/C=C1/OC(=O)C(C[C@@]2(C)CC[C@]3(C)C(C)=CCC[C@H]3[C@H]2C)=C1O`, for which the IC50 (with MDA-MB-231; in series [1]; in the series with H69AR; with ASPC1; with K562) was more than 30 µM throughout.

As for `COC1=CC(=O)[C@@H](C[C@@]2(C)CC[C@]3(C)C(C)=CCC[C@H]3[C@H]2C)[C@H]1O`, the IC50 (with MDA-MB-231; in series [1]; in the series with H69AR; in the series with ASPC1; with K562) was more than 30 µM in each case.

Take `CCCCOC1=CC(=O)C(O)=C(C[C@@]2(C)CC[C@]3(C)C(C)=CCC[C@H]3[C@H]2C)C1=O`: the IC50 with MDA-MB-231 is 9.82 µM; in series [1], 20.3 µM; with H69AR it was 7.74 µM; with ASPC1 it was more than 30 µM; in the series on K562, 3.01 µM.

As for `COC1=CC(=O)C=C(C[C@]2(C)[C@H](C)CC[C@@H]3C(C)=CCC[C@@H]32)C1=O`, the IC50 (with MDA-MB-231; in series [1]; in the series on H69AR; in the series on ASPC1; in the series on K562) was more than 30 µM in each case.

Consider `COc1cccc2c1C(=O)c1c(O)c3c(c(O)c1C2=O)C[C@@](O)(C(=O)CO)C[C@@H]3O[C@H]1C[C@H](N)[C@H](O)[C@H](C)O1` [DOXORUBICIN], for which the IC50 in the series on MDA-MB-231, in the series on H69AR, with ASPC1 and in the series with K562 was less than 1 µM throughout.
